Measured values: US12636386B2, “Compositions and methods for the treatment and imaging of cancer” (BOARD OF REGENTS OF THE UNIVERSITY OF NEBRASKA, priority 2021, dated 2026)
Several values for one entry are separate records, joined by “and”; a condition that tells them apart may be missing. Equal values may be shown once. Read-outs that look alike come from different tables or passages of the source. Values belong to the compound of their own block, whether it stands above or below them.

Assays:
[1] = target: T1, norepinephrine transporter (Homo sapiens, UniProt P23975); assay: Competitive uptake assay with nonradioactive MIBG in BE(2)-C cells; format: cell-based; details: 50 μM nonradioactive MIBG; 25.8±0.7 kBq/ml GPAID; exponentially growing BE cell monolayers
T1 construct: These cells represent a well-established robust model for the NET-specific MIBG uptake; endogenous in cells; host or cells: SK (SK-N-SH) and BE (BE(2)-C) neuroblastoma cells, exponentially growing monolayers
T1 sequence (P23975 whole entry): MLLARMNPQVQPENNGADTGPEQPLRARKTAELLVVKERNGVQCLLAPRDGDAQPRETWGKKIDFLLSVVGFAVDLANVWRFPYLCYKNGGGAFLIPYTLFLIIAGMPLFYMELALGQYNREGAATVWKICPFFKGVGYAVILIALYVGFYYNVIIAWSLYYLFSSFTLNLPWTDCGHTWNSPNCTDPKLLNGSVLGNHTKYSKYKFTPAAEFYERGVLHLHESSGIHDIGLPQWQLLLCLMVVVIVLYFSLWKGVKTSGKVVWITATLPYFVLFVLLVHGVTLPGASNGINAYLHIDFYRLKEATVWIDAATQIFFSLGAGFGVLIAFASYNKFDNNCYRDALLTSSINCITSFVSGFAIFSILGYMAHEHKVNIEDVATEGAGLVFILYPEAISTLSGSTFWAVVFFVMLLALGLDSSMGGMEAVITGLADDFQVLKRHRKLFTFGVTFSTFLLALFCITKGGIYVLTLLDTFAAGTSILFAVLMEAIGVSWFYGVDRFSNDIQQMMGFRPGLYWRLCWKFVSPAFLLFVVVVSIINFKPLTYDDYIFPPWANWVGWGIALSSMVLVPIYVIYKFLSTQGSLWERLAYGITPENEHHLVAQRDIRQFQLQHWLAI
Method: (§1) Cells were plated into T25 flasks and allowed to grow until ˜60%-70% confluent. Fresh medium (3 ml) was added to one set of flasks (n=4 per time). To the second set of flasks (n=4 per time), fresh medium (3 ml) containing 100-μM nonradioactive MIBG was added. All cells were returned to the incubator for 30 minutes, after which time 3 ml of medium containing GPAID (51.5±1.4 kBq/ml) was added to produce the final concentration of 50-μM MIBG and 25.8±0.7 kBq/ml GPAID. Cells were returned to the incubator for additional 1, 24, and 48 hours. At designated times, media were removed, monolayer washed 1× with full medium, 2× with PBS, and SK and BE cells were harvested with the nonenzymatic cell dissociation solution (Sigma-Aldrich). N1E cells were harvested by flushing the monolayer with spent media. Cell numbers were determined, and their radioactive content measured in a gamma counter. The whole cell uptake was calculated on terms of MBq per cells. The clonogenic survival was calculated as the ratio of the number of colonies produced by cells treated with nonradioactive MIBG and GPAID to the number of colonies produced by cells treated with GPAID only. The cell survival at 24 hours was expressed as the ratio of viable cells in treatment groups to cells in untreated controls.

[2] = target: T1, norepinephrine transporter; assay: Competitive uptake assay with nonradioactive MIBG in SK-N-SH cells; format: cell-based; details: 50 μM nonradioactive MIBG; 25.8±0.7 kBq/ml GPAID; exponentially growing SK cell monolayers
Method: as §1

[3] = target: NET (Homo sapiens, UniProt P23975); details: Smets, et al. (1989) Cancer Res.; cited from earlier work
Chain of NET (P23975 whole entry): as above

[4] = tested on: BE(2)-C cells; assay: Clonogenic survival of BE(2)-C cells; format: cell-based, human; details: on average
Method: as §1

[5] = tested on: N1E-115 cells; assay: Subcellular distribution in N1E-115 cells; format: cell-based, murine
Source text: (§2) Two human NB cell lines SK-N-SH (SK) and BE(2)-C(BE) and one murine NB cell line N1E-115 (N1E) were purchased from the American Type Culture Collection (ATCC; Manassas, VA). Cells were maintained according to the vendor's instructions. For animal studies, cells were harvested when ˜70% confluent and cryopreserved until ready to use.
(§3) Established protocols were used in these experiment (Kortylewicz, et al. (2020) J Med Chem., 63:2051-2073; Baranowska-Kortylewicz, et al. (1994) J Label Compd Radiopharm., 34(6):513-521; Kortylewicz, et al. (2009) J Med Chem., 52(16):5124-5143). Briefly, NB cells plated in TPP T25 flasks (Midwest Scientific, Valley Park, MO) at 5×10^5 cells per flask were maintained in culture for 48-72 hours, depending on the doubling time of the cell line, until 60%-70% confluent. For time-dependent uptake studies, GPAID was added to the growth medium to produce the average concentrations of 28.2±5.5, 27.6±2.8, and 30.7±1.0 kBq/ml in SK, BE, and N1E cells, respectively. Radioactive medium was removed after 1, 5, 16, 24, and 48 hours in culture (n=4 per time). Cells were harvested by scraping and enumerated using Cellometer (Nexcelom Bioscience, Lawrence, MA). Cell suspensions were centrifuged for 10 minutes at 1500 rpm; cell pellets resuspended in ice-cold PBS, transferred into microfuge tubes, and centrifuged at 500×g for 10 minutes. The radioactive content of cell pellets was measured in a gamma counter. The cellular uptake was calculated in terms of MBq per cell. For subcellular fractionation experiments, NB cells grown as monolayers were treated with GPAID and processed as described (Kortylewicz, et al. (2020) J Med Chem., 63:2051-2073). In the concentration-dependent uptake experiments, GPAID in the appropriate medium at several concentrations was added to the cell monolayers. Cells were processed after 1-hour incubation. Radioactive medium was removed, and monolayers were washed once with full nonradioactive medium and PBS. Cells were harvested and enumerated, and their radioactive content was measured.

[6] = Ex vivo stability in mouse serum; format: in vitro ADME; details: mouse serum contains esterases including carboxylesterase
Method: (§4) Aliquots of GPAID (1.4-2.3 MBq) in 120 μl of 25% EtOH/PB (10-mM, pH 6.1) were added to 6.88-ml phosphate-buffered saline (PBS), cell culture media, or serum (mouse, pig, or human). Mixtures were briefly vortexed and incubated at 37° C. and 5% CO2. At selected times, 1 ml of GPAID incubation mixture was withdrawn, 1-ml MeCN was added, and the mixture was vortexed and centrifuged at 2000 rpm for 15 minutes at 4° C. The supernatant was removed, and the radioactivity measured. Supernatant (250-500 μl) were acidified to pH˜6 with 0.05-N TFA (2-8 μl). The excess of MeCN was evaporated with a stream of nitrogen and 100 μl of water added. This mixture was passed through a 0.22-μm filter and 100 μl (111-185 kBq) injected onto the HPLC system. HPLC analysis of extracts proceeded on the ACE C18 100-A column ([…], 4.6×250 mm) eluted at 0.8 ml/minute with a linear gradient of MeCN from 10% to 95% over 45 minutes and kept at 95% MeCN for 15 minutes the radioactivity detection (Bioscan). Both solvents contained 0.07% TFA (v/v).
(§5) Ex vivo stability of GPAID was assessed in PBS, cell culture medium without NB cells, and in the presence of NB cells and in human, mouse, and porcine sera after various times of incubation. […] Half-lives in sera were calculated from the area under the peak of the intact GPAID recovered from the incubation mixtures plotted as a function of the incubation time. […]

[7] = Ex vivo stability in pig serum; format: in vitro ADME; details: 37° C., 5% CO2; average±SE; monoexponential fit of percent intact compound
Method: as §4, §5

[8] = Stability in cell culture medium without NB cells; format: physicochemical; details: 5% CO2
Method: as §4, §5

[9] = tested on: BE(2)-C cells; assay: Subcellular distribution in BE(2)-C cells; format: cell-based, human
Source text: as §2, §3

[10] = tested on: SK-N-SH cells; assay: Subcellular distribution in SK-N-SH cells; format: cell-based, human
Source text: as §2, §3

[11] = tested on: N1E-115 tumors; assay: Therapy of mice bearing IP N1E allografts; format: in vivo; details: single IP dose 3.64±0.10 MBq per mouse 1 week after implant; 14 days after treatment; NT controls 2.61±0.57 g; p=0.03
Method: Research involving animals was performed in accordance with the UNMC institutional guidelines and protocols as defined by the Institutional Animal Care and Use Committee for US institutions. Athymic NCr nude mice (spontaneous mutant) were purchased from Taconic (Rensselaer, NY). The intraperitoneal route […] was used for the tumor implant and dose administration. All experiments were conducted in mice of both genders 4 to 8 weeks old.
Four-week-old NCr nu/nu mice, male (n=10) and female (n=10), received IP implant of 5×10^6 N1E cells. One week later, mice were randomly assigned via a lottery to either control or treatment group. Control mice were given IP injection of the vehicle. Mice in the therapy group received a bolus IP injection of 3.64±0.10 MBq GPAID per mouse (˜145 MBq/kg body weight [bw]). Triplicate aliquots of the injected dose (ID) were counted in a gamma counter. Syringes containing the dose and syringes after the injection were weighed on the analytical balance to determine ID. Whole body radioactivity was also measured immediately after each injection to confirm ID. Necropsy was performed at the termination of the experiment. Blood was collected via cardiac puncture. […]
All variables are expressed as average±standard deviation or ±standard error. The cellular uptake, cell survival, and other biological properties were analyzed using two-sided Student's t test. […]

[12] = tested on: BE(2)-C and SK-N-SH cells; assay: Time- and concentration-dependent cellular uptake, statements covering both NB cell lines; format: cell-based, human
Source text: as §2, §3

[13] = Ex vivo stability in human serum; format: in vitro ADME; details: 37° C., 5% CO2; average±SE; monoexponential fit of percent intact compound
Method: as §4, §5

[14] = monoprotonated cation at physiological pH; cited from earlier work
[15] = Stability in PBS; format: physicochemical; details: 37° C.
Method: as §4, §5

[16] = Biodistribution at necropsy 14 days after the dose; format: in vivo, mice; details: necropsy 14 days after the IP dose
Source text: (§6) Four-week-old NCr nu/nu mice, male (n=10) and female (n=10), received IP implant of 5×10^6 N1E cells. One week later, mice were randomly assigned via a lottery to either control or treatment group. Control mice were given IP injection of the vehicle. Mice in the therapy group received a bolus IP injection of 3.64±0.10 MBq GPAID per mouse (˜145 MBq/kg body weight [bw]). Triplicate aliquots of the injected dose (ID) were counted in a gamma counter. Syringes containing the dose and syringes after the injection were weighed on the analytical balance to determine ID. Whole body radioactivity was also measured immediately after each injection to confirm ID. Necropsy was performed at the termination of the experiment. Blood was collected via cardiac puncture. Aliquots were reserved for determination of hemoglobin (Hb; HemoCue, Ängelholm, Sweden) and hematocrit (Hct).

[17] = Hemoglobin and hematocrit in treated tumor-bearing mice; format: in vivo; details: mice treated with 3.64±0.10 MBq GPAID IP; termination necropsy
Source text: as §6

[18] = tested on: NB cells; assay: Survival of NB cells, trypan blue exclusion method followed by clonogenic assay; format: cell-based, human; details: trypan blue exclusion and clonogenic assay; 25.8±0.7 kBq/ml
Method: as §1

[19] = tested on: SK-N-SH cells; assay: Radioactive species in medium recovered from NB cell monolayers cultured with GPAID; format: cell-based, human
Method: as §4
Ex vivo stability of GPAID was assessed in PBS, cell culture medium without NB cells, and in the presence of NB cells and in human, mouse, and porcine sera after various times of incubation. The analytical details are provided hereinabove. Half-lives in sera were calculated from the area under the peak of the intact GPAID recovered from the incubation mixtures plotted as a function of the incubation time. The degradation curves followed the first-order kinetics. Data were fitted into the monoexponential equations with the intercept set at 100% (FIG. 2A). In a typical experiment, a final concentration of GPAID in serum approximated radioactivity levels of ^131IMIBG in blood of children receiving therapeutic doses (Pandit-Taskar, et al. (2017) Clin Nucl Med., 42(10):741-748; Matthay, et al. (1998) J Clin Oncol., 16(1):229-236). 0

[20] = from Kortylewicz, et al. (2020) J Med Chem; cited from earlier work
[21] = from Kortylewicz, et al. (2020) J Med Chem; cited from earlier work; remark: listed apart in the source
[22] = N1E cells, 24-hour incubation, average 29±3 kBq/ml
[23] = 1 hour with GPAID, washed, additional 4 hours in nonradioactive medium
[24] = incubated with exponentially growing NB cell monolayers for 24 hours

Compound: N=C(N)NCc1cccc([131I])c1 [MIBG, metaiodobenzylguanidine]
Inhibition of GPAID uptake [1]: 85%
Inhibition of GPAID uptake [2]: 70%
Concentration at which uptake begins to saturate [3]: > 500 nM
Concentration up to which uptake is linear [3]: ~100 nM
Colonies from cells exposed to nonradioactive MIBG alongside GPAID compared with GPAID alone ([4]; 50-μM MIBG, 25.8±0.7 kBq/ml GPAID): 3 ×

Compound: N=C(N)NCc1cccc([125I])c1 [^125IMIBG]
Recovery in the cytoplasmic fraction ([5]; N1E cells, 24-hour incubation): majority
^125I recovered in DNA (DNA pellet) [5, 22]: 0%
^125I retrieved in the soluble nuclear fraction [5, 22]: ~19%

Stability in mouse serum [6]: not stable
Half-life in pig serum [7]: 5.8 ± 2.1 h
Stability in cell culture in the absence of NB cells ([8]; 37° C.): stable
Intact GPAID remaining in cell culture medium without cells ([8]; 24 hours at 37° C.): > 90%
Half-life in human serum [13]: 7.9 ± 0.7 h
Stability in PBS [15]: stable
Total radioactivity in the form of either free ^125I or ^125I-uracil in medium ([19]; SK-N-SH cells cultured with GPAID for 24 hours at 37° C., 5% CO2 (FIG. 2D)): ~30%
Intact GPAID in recovered media [19, 24]: ~42%
^125IUdR in recovered media [19, 24]: ~28%
Compound: (R)-(−)-5-[^125I]Iodo-3′-O-[2-(ε-guanidinohexanoyl)-2-phenylacetyl]-2′-deoxyuridine [GPAID]
Total cellular radioactivity associated with DNA [9, 23]: > 95%
Total recovered ^125I in DNA ([9]; after 1 hour with GPAID): 32%
^125I associated with DNA ([9]; at 24 hours): practically all
Total cellular radioactivity associated with DNA [10, 23]: ~75%
Total recovered ^125I in DNA ([10]; after 1 hour with GPAID): ~22%
^125I associated with DNA ([10]; at 24 hours): practically all
Average tumor weight at necropsy [11]: 0.88 ± 0.54 g
^125I disintegrations accumulated in 24 hours ([12]; 1-hour exposure, all tested concentrations >0.015 MBq/ml): > 20 disintegrations per cell
Dependence of cellular radioactivity on extracellular concentration ([12]; 1-hour treatment, entire tested range up to 200 kBq/ml (2.45×10^−9 M)): directly proportional to the extracellular concentration of GPAID
Cellular uptake in BE cells compared with SK cells ([12]; 1 hour incubation, washed and processed immediately): nearly identical
pKa [14]: ~12
^125I recovered in DNA (DNA pellet) [5, 22]: > 99%
^125I activity in the nuclei bound to DNA ([5]; N1E-115 cells, 24-hour treatment, 29±3 kBq/ml (FIG. 3E)): ~100%
Residual level in the adrenal glands [16]: 0.034±0.016 % ID/g
Radioactivity retention in tissues ([16]; all tissues): only marginal radioactivity retention
HCt level [17]: within the normal range values
Hb level [17]: within the normal range values
Survival of NB cells treated with GPAID alone [18]: significant reduction in survival
BE cells that survived, retained reproductive integrity and formed colonies ([4]; GPAID extracellular concentration 25.8±0.7 kBq/ml): 32%

Compound: N=C(N)NCCCCCC(=O)O[C@H]1C[C@H](n2cc([125I])c(=O)[nH]c2=O)O[C@@H]1CO [IDG, 5-[^125I]iodo-3′-O-(ε-guanidinohexanoyl)-2′-deoxyuridine]
Half-life in pig serum [20]: 3.6 ± 0.1 h
Half-life in human serum [21]: 2.3 ± 0.1 h and ~2.3 h
